Measurements from article PMC9504289 (Pharmaceuticals, 2022).
“And” between values parts separate entries of the source, which are not always exact repeats. Equal entries are not always repeated. Where two headings read alike, the source gives them in different places.

Tests used:
HCoV-NL63 S1 – hACE2 = HCoV-NL63 S1 – hACE2 (Human coronavirus NL63, UniProt Q6Q1S2); test: biochemical; assay type: binding; details: for IC50: Inhibition of HCoV-NL63 S1 – hACE2 Binding: IC50
[1] = system: SARS-CoV-2 pseudovirus (orig. strain); test: microbe, parasite or virus in culture; assay type: cell-based; details: Severe acute respiratory syndrome-related coronavirus, HEK-293T, read-out: Inhibition of SARS-CoV-2 pseudovirus entry (orig. strain) IC50
[2] = system: SARS-CoV-2 pseudovirus (delta VoC); test: microbe, parasite or virus in culture; assay type: cell-based
HEK293T cells = system: HEK293T cells
Text: Figure 8 Cytotoxicity assessment. MTS cytotoxicity assay (HEK293T cells) using the same conditions as for the activity assessment (Figure 7). Data (symbols) are average ± SD of three experiments in duplicates; TC50 values shown in the legend were obtained from fitting with standard sigmoid curves as before.

SARS-CoV-2 [3] = details: read-out: antiviral activity IC50 confirmed in a live viral or pseudoviral assay; cited from earlier work
SARS-CoV-2-S = details: read-out: KD for binding to SARS-CoV-2-S; cited from earlier work
SARS-CoV-2 [4] = details: read-out: IC50 for SARS-CoV-2 infection inhibition; cited from earlier work
[5] = Severe acute respiratory syndrome-related coronavirus, HEK-293T, hACE2-expressing HEK293T, read-out: Inhibition of SARS-CoV-2 pseudovirus entry (delta VoC) IC50
[6] = same conditions as pseudovirus assay

Sequence of HCoV-NL63 S1 – hACE2 (Q6Q1S2 19-717 limits assumed): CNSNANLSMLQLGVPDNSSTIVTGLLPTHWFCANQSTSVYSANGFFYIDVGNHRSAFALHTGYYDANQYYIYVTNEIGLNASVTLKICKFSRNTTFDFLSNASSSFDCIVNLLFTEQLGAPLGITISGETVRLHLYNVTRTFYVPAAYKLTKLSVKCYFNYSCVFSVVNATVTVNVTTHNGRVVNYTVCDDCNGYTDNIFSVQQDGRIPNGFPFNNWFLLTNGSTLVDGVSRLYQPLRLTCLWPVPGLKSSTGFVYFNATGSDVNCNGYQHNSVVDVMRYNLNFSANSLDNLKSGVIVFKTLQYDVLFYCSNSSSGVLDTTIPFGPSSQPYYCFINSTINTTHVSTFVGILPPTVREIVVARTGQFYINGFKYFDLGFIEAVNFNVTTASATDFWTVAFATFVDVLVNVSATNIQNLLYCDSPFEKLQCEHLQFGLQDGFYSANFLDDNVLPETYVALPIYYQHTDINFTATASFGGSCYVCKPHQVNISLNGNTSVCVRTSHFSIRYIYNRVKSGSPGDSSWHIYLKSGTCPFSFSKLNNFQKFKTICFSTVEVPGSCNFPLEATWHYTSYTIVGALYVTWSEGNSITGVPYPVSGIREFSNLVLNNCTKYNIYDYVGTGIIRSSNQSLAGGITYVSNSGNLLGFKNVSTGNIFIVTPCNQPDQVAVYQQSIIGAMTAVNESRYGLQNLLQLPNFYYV

Compound	IC50 (HCoV-NL63 S1 – hACE2)	IC50 ([1]; hACE2-expressing HEK293T) [µM]	IC50 [2, 5] [µM]	IC50 (SARS-CoV-2 [3]) [µM]	Cytotoxicity (HEK293T cells, MTS): TC50 (HEK293T cells; [6])	further results
Nc1c(/N=N/c2ccc(-c3ccc(/N=N/c4cc(S(=O)(=O)O)c5ccccc5c4N)cc3)cc2)cc(S(=O)(=O)O)c2ccccc12 [Congo red]	< 3 µM and 2.26 µM	20.3	3.07	< 30		Cytotoxicity (HEK293T cells, MTS): TC50 (HEK293T cells; same conditions as pseudovirus assay, listed as CgRd): 130 µM and 130.40 µM
Nc1c(/N=N/c2ccc([N+](=O)[O-])cc2)c(S(=O)(=O)O)cc2cc(S(=O)(=O)O)c(/N=N/c3ccccc3)c(O)c12 [Naphthol blue black, naphthol blue black]	58.7 µM	> 500	174			Cytotoxicity (HEK293T cells, MTS): TC50 (HEK293T cells; human): > 1000.00 µM
Nc1ccc2cc(S(=O)(=O)O)cc(O)c2c1/N=N/c1ccc(-c2ccc(/N=N/c3c(N)ccc4cc(S(=O)(=O)O)cc(O)c34)cc2)cc1 [Direct violet 1, direct violet 1]	< 3 µM and 2.29 µM	35.8	2.97	< 30		Cytotoxicity (HEK293T cells, MTS): TC50 (HEK293T cells; same conditions as pseudovirus assay, listed as DV1): 110 µM and 110.10 µM
Cc1cc(-c2ccc(/N=N/c3ccc4c(S(=O)(=O)O)cc(S(=O)(=O)O)c(N)c4c3O)c(C)c2)ccc1/N=N/c1ccc2c(S(=O)(=O)O)cc(S(=O)(=O)O)c(N)c2c1O [Evans blue]	< 3 µM and 2.6 µM			< 30		IC50 [1]: 16.6 µM; IC50 ([2]; Severe acute respiratory syndrome-related coronavirus, HEK-293T, read-out: Inhibition of SARS-CoV-2 pseudovirus entry (delta VoC) IC50, hACE2-expressing HEK293T): 25.4 µM; Cytotoxicity (HEK293T cells, MTS): TC50 (HEK293T cells; same conditions as pseudovirus assay, listed as EvBl): 439 µM and 439.20 µM; Kd (SARS-CoV-2-S): 2200 nM; IC50 (SARS-CoV-2 [4]): 28.1 µM
O=C(Nc1ccc(-c2ccc(C(=O)Nc3cccc4cc(S(=O)(=O)O)ccc34)cc2)cc1)c1ccc([N+](=O)[O-])cc1 [DRI-C23041]	4.16 µM	4.71	5.42	< 30	> 1000.00 µM	loss of activity compared to the SARS-CoV assays (HCoV-NL63 S1 – hACE2): 2–5 fold; IC50 ([2]; read-out: Inhibition of SARS-CoV-2 pseudovirus entry (delta VoC) IC50, hACE2-expressing HEK293T): 6.31 µM
O=S(=O)(O)c1ccc(/N=N/c2c(O)ccc3cc(S(=O)(=O)O)ccc23)cc1 [Sunset yellow, sunset yellow FCF]	> 500 µM	> 500	> 500			Cytotoxicity (HEK293T cells, MTS): TC50 (HEK293T cells; human): > 1000.00 µM
O=C(Nc1ccc2cc(C(=O)Nc3cccc4cccc(S(=O)(=O)O)c34)ccc2c1)c1ccc([N+](=O)[O-])cc1 [DRI-C41041]		> 500	27.7		> 1000.00 µM	
C=C(C)[C@@H]1CCC(C)=C[C@H]1c1c(O)cc(CCCCC)c(C(=O)O)c1O [cannabidiolic acid]				< 30		
O=C(Nc1ccc(-c2ccc(C(=O)Nc3cccc4c(S(=O)(=O)O)cccc34)cc2)cc1)c1ccc([N+](=O)[O-])cc1 [DRI-C24041]	6.54 µM	6.58	7.76		> 600 µM and 617.90 µM	loss of activity compared to the SARS-CoV assays (HCoV-NL63 S1 – hACE2): 2–5 fold
verteporfin				< 30		
O=C(Nc1ccc(-c2ccc(C(=O)Nc3ccc(S(=O)(=O)O)c4cccc(S(=O)(=O)O)c34)cc2)cc1)c1ccc([N+](=O)[O-])cc1 [DRI-C2105041]		217	26.9		> 1000.00 µM	
CCCCCc1cc(O)c(C/C=C(\C)CCC=C(C)C)c(O)c1C(=O)O [cannabigerolic acid]				< 30		
